Earlier results in paper PMC2757550 (Bioconjugate chemistry, 2009).

Test system: mouse vas deferens preparation

Substance: Dmt-Tic-Glu-NH(CH2)5NH-fluorescein
- removal from preparation by extensive washing (in words): cannot be removed from the mouse vas deferens preparation by extensive washing
